This note sets out measurements from patent publication US20170217899A1, “NOVEL HALOGEN-SUBSTITUTED COMPOUNDS” (BAYER CROPSCIENCE AKTIENGESELLSCHAFT, priority 2014, published 2017).

The nature of data set [1]: logP determination by HPLC on reversed-phase column (C18), EEC Directive 79/831 Annex V.A8. The data set is classed as physicochemical. The note with it: for chromatographic logP: reversed-phase HPLC column (C18).
The test system of a further data set is Phaedon cochleariae. The experiment in a line: Phaedon cochleariae spray test. The format is in vivo. The following applies: in Brassica rapa, foliar, 168 h. The protocol:
Phaedon cochleariae—Spray Test
(§1) To produce a suitable preparation of active compound, 1 part by weight of active compound is mixed with the stated amount of solvents and is diluted with water, containing an emulsifier concentration of 1000 ppm, to the desired concentration. Further test concentrations are prepared by dilution with emulsifier containing water.
Chinese cabbage (Brassica pekinensis) leaf disks are sprayed with a preparation of the active ingredient of the desired concentration. Once dry, the leaf disks are infested with mustard beetle larvae (Phaedon cochleariae).
After 7 days mortality in % is determined. 100% means all beetle larvae have been killed and 0% means none of the beetle larvae have been killed.

The test system of another data set is Tetranychus urticae. Nature of the data set: Tetranychus urticae spray test OP-resistant. The note with it: in Phaseolus vulgaris, foliar, 144 h. The data set is classed as in vivo. The method, then: Tetranychus urticae—Spray Test OP-Resistant
as §1
French bean (Phaseolus vulgaris) leaf disks infected with all instars of the two spotted spidermite (Tetranychus urticae), are sprayed with a preparation of the active ingredient of the desired concentration.
After 6 days mortality in % is determined. 100% means all spider mites have been killed and 0% means none of the spider mites have been killed.

For the next data set, the system named is Spodoptera frugiperda. The experiment in a line: Spodoptera frugiperda spray test. The format is in vivo. The note with it: for mortality: 100 g/ha, maize leaf sections, larvae, after 7 days. The protocol:
Spodoptera Frugiperda—Spray Test
as §1
Maize (Zea mays) leaf sections are sprayed with a preparation of the active ingredient of the desired concentration. Once dry, the leaf sections are infested with fall armyworm larvae (Spodoptera frugiperda).
After 7 days mortality in % is determined. 100% means all caterpillars have been killed and 0% means none of the caterpillars have been killed.

The next data set deals with Boophilus microplus. Nature of the data set: Boophilus microplus injection test (BOOPMI Inj). The format is in vivo. The note with it: 20 μg/animal, injection into adult engorged female ticks, egg deposition after 7 days. The protocol:
Boophilus Microplus—Injectiontest (BOOPMI Inj)
(§2) Solvent: Dimethyl Sulfoxide
To produce a suitable preparation of active compound, 10 mg of active compound are dissolved in 0.5 ml solvent, and the concentrate is diluted with solvent to the desired concentration.
Five adult engorged female ticks (Boophilus microplus) are injected with 1 μl compound solution into the abdomen. The ticks are transferred into replica plates and incubated in a climate chamber.
After 7 days egg deposition of fertile eggs is monitored. Eggs where fertility is not visible are stored in a climate chamber till hatching after about 42 days. An efficacy of 100% means all eggs are infertile; 0% means all eggs are fertile.

The next data set concerns Ctenocephalides felis. Nature of the data set: Ctenocephalides felis oral test (CTECFE). The note with it: 100 ppm in cattle blood, adult cat fleas, after 2 days. The format is in vivo. The method, then: Ctenocephalides felis—Oral Test (CTECFE)
as §2
To produce a suitable preparation of active compound, 10 mg of active compound are dissolved in 0.5 ml solvent, and the concentrate is diluted with cattle blood to the desired concentration.
Approximately 20 adult unfed cat fleas (Cienocephalides felis) are placed in flea chambers. The blood chamber, sealed with parafilm on the bottom, are filled with cattle blood supplied with compound solution and placed on the gauze covered top of the flea chamber, so that the fleas are able to suck the blood. The blood chamber is heated to 37° C. whereas the flea chamber is kept at room temperature.
After 2 days mortality in % is determined. 100% means all the fleas have been killed; 0% means none of the fleas have been killed.

The test system of a further data set is Lucilia cuprina. Nature of the data set: Lucilia cuprina test (LUCICU). The data set is classed as in vivo. The note with it: 100 ppm, 1st instar larvae, after 2 days. The protocol:
Lucilia cunrina—Test (LUCICU)
as §2
10 mg active compound are dissolved in 0.5 ml Dimethylsulfoxid. Serial dilutions are made to obtain the desired rates.
Approximately 20 1st instar larvae of the Australian sheep blowfly (Lucilia cuprina) are transferred into a test tube containing minced horse meat and compound solution of the desired concentration.
After 2 days mortality in % is determined. 100% means all the larvae have been killed; 0% means none of the larvae have been killed.

The subject of another data set is Myzus persicae. Nature of the data set: Myzus persicae spray test. The format is in vivo. The note with it: 100 g/ha, Chinese cabbage leaf disks, all instars, after 6 days. The method, then:
Myzus Persicae—Spray Test
as §1
Chinese cabbage (Brassica pekinensis) leaf disks infected with all instars of the green peach aphid (Myzus persicae), are sprayed with a preparation of the active ingredient of the desired concentration.
After 6 days mortality in % is determined. 100% means all aphids have been killed and 0% means none of the aphids have been killed.

Setting [2] is: intermediates, values in text, same HPLC method.
[3] abbreviates: intermediates, values in text, same HPLC method, read-out: log P (HPLC-MS).
[4] abbreviates: HPLC, C18, acetonitrile (0.1% formic acid)/water (0.09% formic acid) gradient, read-out: logP.
Where [5] appears, read: HPLC, C18, acetonitrile (0.1% formic acid)/water (0.09% formic acid) gradient.

Like-named read-outs stand apart in the source and are kept apart here.

Regarding “4′-(difluoromethyl)-5′-(1-fluorocyclopropyl)-4-iodo-2′-methyl-2′H-1,3′-bipyrazole [Example 26]”, in data set [1] (setting [2]), the “log P (HPLC-MS)” value was 3.37.
For “5′-(1-fluorocyclopropyl)-4-iodo-2′-methyl-2′H-1,3′-bipyrazole-4′-carbaldehyde [Example 25]”, the “log P (HPLC-MS)” value in data set [1] (setting [2]) came out at 2.86.
In the case of `N#CC1(NC(=O)c2cc(-c3cn[nH]c3)ccc2Cl)CC1` [Example 14, 2-chloro-N-(1-cyanocyclopropyl)-5-(1H-pyrazol-4-yl)benzamide], the chromatographic logP in data set [1] (setting [3]) stood at 1.31.
As for `CN(C)/C=C/C(=O)C1(F)CC1` [Example 16, (2E)-3-(dimethylamino)-1-(1-fluorocyclopropyl)prop-2-en-1-one], the chromatographic logP in data set [1] (setting [3]) amounted to 1.16.
Still for that read-out and setting: the value for `Cn1nc(C2(F)CC2)c(C=O)c1Cl` [Example 24, 5-chloro-3-(1-fluorocyclopropyl)-1-methyl-1H-pyrazole-4-carbaldehyde] was 1.71; that for `COC(=O)c1cc(-c2cnn(-c3c(C(F)F)c(C4(F)CC4)nn3C)c2)ccc1Cl` [Example 28, methyl 2-chloro-5-[4′-(difluoromethyl)-5′-(1-fluorocyclopropyl)-2′-methyl-2′H-1,3′-bipyrazol-4-yl]benzoate] was 3.63.
Consider `Cn1nc(C2(F)CC2)c(C(F)F)c1-n1cc(-c2ccc(Cl)c(C(=O)O)c2)cn1` [Example 29, 2-chloro-5-[4′-(difluoromethyl)-5′-(1-fluorocyclopropyl)-2′-methyl-2′H-1,3′-bipyrazol-4-yl]benzoic acid], for which the chromatographic logP in data set [1] (setting [3]) is 2.71.
`CN1N=C(C2(F)CC2)CC1=O` [Example 32, 5-(1-fluorocyclopropyl)-2-methyl-2,4-dihydro-3H-pyrazol-3-one]: the chromatographic logP in data set [1] (setting [3]) turned out to be 0.38.
Consider `Cn1nc(C2(F)CC2)c(C(F)(F)F)c1-n1cc(-c2ccc(Cl)c(C(=O)NC3(C#N)CC3)c2)cn1` [Example I-1, 2-chloro-N-(1-cyanocyclopropyl)-5-[5′-(1-fluorocyclopropyl)-2′-methyl-4′-(trifluoromethyl)-2′H-1,3′-bipyrazol-4-yl]benzamide], for which, in data set [1] (setting [4]), the chromatographic logP was determined as 3.09.
Usually mortality stands for the percentage killed. For `Cn1nc(C2(F)CC2)c(C(F)F)c1-n1cc(-c2ccc(Cl)c(C(=O)NC3(C#N)CC3)c2)cn1` [Example I-2, 2-chloro-N-(1-cyanocyclopropyl)-5-[4′-(difluoromethyl)-5′-(1-fluorocyclopropyl)-2′-methyl-2′H-1,3′-bipyrazol-4-yl]benzamide], the mortality at 100 g/ha with Phaedon cochleariae was found to be 100%; in the data set with Tetranychus urticae, 100%; in the data set on Spodoptera frugiperda (Spodoptera frugiperda, in Zea mays, 168 h) it was 100%. For the same compound, the chromatographic logP in data set [1] (setting [4]) is 2.78.
Usually logP stands for the decadic logarithm of the partition coefficient of the neutral form, usually between octanol and water. A lower logP goes with a more hydrophilic compound. `Cn1nc(C2(F)CC2)c(C(F)F)c1-n1cc(-c2ccc(Cl)c(C(=O)NC3CC3)c2)cn1` [Example I-3] showed a logP in data set [1] (setting [5]) of 2.81.
`Cn1nc(C2(F)CC2)c([N+](=O)[O-])c1-n1cc(-c2ccc(Cl)c(C(=O)NC3(C#N)CC3)c2)cn1` [Example I-4]: the “efficacy (infertile eggs)” value with Boophilus microplus stood at 100%. The compound also yielded a logP in data set [1] (setting [5]) of 2.69. The mortality in the data set on Ctenocephalides felis and in the data set on Lucilia cuprina was 100% each time.
`Cn1nc(C2(F)CC2)c([N+](=O)[O-])c1-n1cc(-c2ccc(Cl)c(C(=O)NC3CC3)c2)cn1` [Example I-5] showed a logP in data set [1] (setting [5]) of 2.70.
On the same count and under the same terms, under `Cn1nc(C2(Br)CC2)c([N+](=O)[O-])c1-n1cc(-c2ccc(Cl)c(C(=O)NC3CC3)c2)cn1` [Example I-6] stands 2.98.
`Cn1nc(C2(Cl)CC2)c(C(F)F)c1-n1cc(-c2ccc(Cl)c(C(=O)NC3(C#N)CC3)c2)cn1` [Example I-7]: the logP in data set [1] (setting [5]) was determined as 2.96. Moreover, the figures for the mortality in the data set with Spodoptera frugiperda and in the data set on Myzus persicae were 100% and 90%, respectively.
As to `Cn1nc(C2(Cl)CC2)c(C(F)F)c1-n1cc(-c2ccc(Cl)c(C(=O)NC3CC3)c2)cn1` [Example I-8], the logP in data set [1] (setting [5]) came out at 3.05. The mortality with Spodoptera frugiperda stood at 100%.
Take `Cn1nc(C2(Cl)CC2)c(C(F)F)c1-n1cc(-c2cnc(Cl)c(C(=O)NC3(C#N)CC3)c2)cn1` [Example I-9]: in data set [1] (setting [5]), the logP is on record as 2.63.
Still for that read-out and setting: under `Cn1nc(C2(Cl)CC2)c(C(F)F)c1-n1cc(-c2cnc(Cl)c(C(=O)NC3CC3)c2)cn1` [Example I-10] stands 2.60; under `Cn1nc(C2(F)CC2)c(C(F)F)c1-n1cc(-c2cnc(Cl)c(C(=O)NC3(C#N)CC3)c2)cn1` [Example I-11], 2.44.
Compound `Cn1nc(C2(F)CC2)c(C(F)F)c1-n1cc(-c2cnc(Cl)c(C(=O)NC3CC3)c2)cn1` [Example I-12] displayed a log partition coefficient (logP) in data set [1] (setting [5]) of 2.42.
